Results from ChEMBL document CHEMBL1151352, “Antifeedant Diterpenes For the Gypsy Moth Larvae From Kalmia latifolia: Isolation and Characterization of Ten Grayanoids” (1980).

How the values were obtained:
Type in all cases: functional
[1] = tested on: Lymantria dispar; test: Antifeedant activity in gypsy moth ten third-instar larvae at 20 ug/ml relative to control
[2] = tested on: Lymantria dispar; test: Antifeedant activity in gypsy moth ten third-instar larvae at 7.5 ug/ml relative to control
[3] = tested on: Lymantria dispar; test: Antifeedant activity in gypsy moth ten third-instar larvae at 17.5 ug/ml relative to control
[4] = tested on: Lymantria dispar; test: Antifeedant activity in gypsy moth ten third-instar larvae at 32.5 ug/ml relative to control
[5] = tested on: Lymantria dispar; test: Antifeedant activity in gypsy moth ten third-instar larvae at 45 ug/ml relative to control
[6] = tested on: Lymantria dispar; test: Antifeedant activity in gypsy moth ten third-instar larvae at 2.5 ug/ml relative to control
[7] = tested on: Lymantria dispar; test: Antifeedant activity in gypsy moth ten third-instar larvae at 27 ug/ml relative to control
[8] = tested on: Lymantria dispar; test: Antifeedant activity in gypsy moth ten third-instar larvae at 60 ug/ml relative to control
[9] = tested on: Lymantria dispar; test: Antifeedant activity in gypsy moth ten third-instar larvae at 30 ug/ml relative to control
[10] = tested on: Lymantria dispar; test: Antifeedant activity in gypsy moth ten third-instar larvae at 15 ug/ml relative to control

Q: For `C=C1[C@@H]2CC[C@@H]3C[C@@]2(C[C@@H](O)[C@@]2(O)[C@H]1C[C@H](O)C2(C)C)C[C@@]3(C)O`, which Activity [1] is on record?
A: The Activity was 121%.

Q: With `CC(=O)O[C@@H]1[C@@H](O)[C@@]23C[C@@H](CC[C@H]2[C@@](C)(O)[C@@H]2[C@@H]4O[C@@H]4C(C)(C)[C@@]12O)[C@](C)(O)C3` [LYONIOL A] as the compound, how does the Activity [2] read?
A: Its Activity is 95%.

Q: With `C=C1[C@@H]2CC[C@@H]3[C@@H](O)[C@]2(C[C@@]3(C)O)[C@H](O)[C@@H](O)[C@@]2(O)[C@H]1C[C@H](O)C2(C)C` [KALMITOXIN II] as the compound, how does the Activity [3] read?
A: Its Activity is 86%.

Q: With `CC1(C)[C@@H](O)C[C@H]2[C@](C)(O)[C@@H]3CC[C@@H]4[C@@H](O)[C@@]3(C[C@@H](O)[C@@]21O)C[C@@]4(C)O` [GRAYANOTOXIN III] as the compound, how does the Activity [4] read?
A: Its Activity is 49%.

Q: `CC(=O)O[C@@H]1[C@@H](O)[C@@]2(O)[C@@H]([C@@H](O)[C@H](O)C2(C)C)[C@](C)(O)[C@@H]2CC[C@@H]3[C@@H](OC(C)=O)[C@]12C[C@@]3(C)O` [KALMITOXIN VI] was tested. Which Activity [5] did it give?
A: Its Activity is 106%.

Q: `CC(=O)O[C@@H]1[C@@H](OC(C)=O)[C@@]2(O)[C@@H]([C@@H]3O[C@@H]3C2(C)C)[C@](C)(O)[C@@H]2CC[C@@H]3[C@@H](O)[C@]12C[C@@]3(C)O` [KALMITOXIN V] was tested. Which Activity [6] did it give?
A: The Activity was 92%.

Q: With `CC(=O)O[C@@H]1[C@@H](O)[C@]23C[C@@](C)(O)[C@H](CC[C@H]2[C@@](C)(O)[C@@H]2C[C@H](O)C(C)(C)[C@@]12O)[C@H]3O` [KALMITOXIN III] as the compound, how does the Activity [7] read?
A: Its Activity is 99%.

Q: For `CC1(C)[C@@H](O)C[C@H]2[C@](C)(O)[C@@H]3CC[C@@H]4[C@@H](O)[C@]3(C[C@@]4(C)O)[C@H](O)[C@@H](O)[C@@]21O` [KALMITOXIN I], which Activity [8] is on record?
A: The Activity was 23%.

Q: Which Activity [9] does the source give for `CC(=O)O[C@@H]1[C@@H](O)[C@]23C[C@@](C)(O)[C@H](CC[C@H]2[C@@](C)(O)[C@@H]2[C@@H]4O[C@@H]4C(C)(C)[C@@]12O)[C@H]3O` [KALMOTOXIN IV] here?
A: Its Activity is 47%.

Q: For `C=C1[C@@H]2CC[C@@H]3[C@@H](O)[C@@]2(C[C@@H](O)[C@@]2(O)[C@H]1C[C@H](O)C2(C)C)C[C@@]3(C)O`, which Activity [10] is on record?
A: Its Activity is 65%.
